Results published in PubChem BioAssay (NCI).
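Dose response: 5 concentrations. Exposure: 48 h. Format: 96-well plates. Endpoint: linear interpolation; highest concentration if not reached. GI50 marks 50% less growth. The concentration for full growth arrest is given as TGI.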

What was measured:
Assay in all cases: DTP human tumour cell line panel, 48 h
ACHN renal = system: ACHN renal
EKVX NSCLC = system: EKVX NSCLC
CCRF-CEM leukemia = system: CCRF-CEM leukemia
SK-OV-3 ovarian = system: SK-OV-3 ovarian
SNB-19 CNS = system: SNB-19 CNS
SK-MEL-28 melanoma = system: SK-MEL-28 melanoma
UO-31 renal = system: UO-31 renal
OVCAR-4 ovarian = system: OVCAR-4 ovarian
SNB-75 CNS = system: SNB-75 CNS
HL-60(TB) leukemia = system: HL-60(TB) leukemia

## COc1ccc2c(c1)C(=O)c1c-2n(CCCN2CCOCC2)c(=O)c2ccccc12
ACHN renal
  GI50: 1.69 µM
  TGI: 4.07 µM
EKVX NSCLC
  GI50: 4.52 µM
  TGI: > 89.2 µM
CCRF-CEM leukemia
  GI50: 1.19 µM
  TGI: > 20.7 µM
SK-OV-3 ovarian
  GI50: 3.27 µM
  TGI: 12.1 µM
SNB-19 CNS
  GI50: 2.65 µM
  TGI: 30.9 µM
SK-MEL-28 melanoma
  GI50: 11.2 µM
  TGI: > 100 µM
UO-31 renal
  GI50: 0.799 µM
  TGI: 3.26 µM
OVCAR-4 ovarian
  GI50: 4.57 µM
  TGI: > 100 µM
SNB-75 CNS
  GI50: 3.86 µM
  TGI: 23.1 µM
HL-60(TB) leukemia
  GI50: 4.59 µM
  TGI: > 100 µM

## O=C(NN1C(=O)CSC1c1ccc(Cl)cc1)c1[nH]c2ccc(F)cc2c1-c1ccccc1 (stereo not given)
ACHN renal
  GI50: 3.28 µM
  TGI: 12.2 µM
EKVX NSCLC
  GI50: 6.23 µM
  TGI: 24.8 µM
CCRF-CEM leukemia
  GI50: 2.17 µM
  TGI: 5.85 µM
SK-OV-3 ovarian
  GI50: 7.25 µM
  TGI: 20 µM
SNB-19 CNS
  GI50: 3.79 µM
  TGI: 15.5 µM
SK-MEL-28 melanoma
  GI50: 3.23 µM
  TGI: 10.1 µM
UO-31 renal
  GI50: 4.07 µM
  TGI: 13.7 µM
OVCAR-4 ovarian
  GI50: 6.3 µM
  TGI: 24 µM
SNB-75 CNS
  GI50: 5.04 µM
  TGI: 21 µM
HL-60(TB) leukemia
  GI50: 2.75 µM
  TGI: 7.71 µM

## C=CCc1ccc(O)c(-c2cc(C3Oc4c(-c5cc(CC=C)ccc5O)cc(O)cc4[C@@H]3CO)ccc2O)c1 (stereo not given in full)
ACHN renal
  TGI: > 100 µM
EKVX NSCLC
  TGI: > 100 µM
CCRF-CEM leukemia
  TGI: 43.7 µM
SK-OV-3 ovarian
  TGI: > 100 µM
SNB-19 CNS
  TGI: 78.7 µM
SK-MEL-28 melanoma
  TGI: 76.8 µM
UO-31 renal
  TGI: > 100 µM
OVCAR-4 ovarian
  TGI: > 100 µM
SNB-75 CNS
  TGI: > 100 µM
HL-60(TB) leukemia
  TGI: 38.5 µM

## CC(=O)c1cccc(NCn2nnc3ccccc32)c1
ACHN renal
  TGI: > 100 µM
EKVX NSCLC
  TGI: > 100 µM
CCRF-CEM leukemia
  TGI: > 100 µM
SK-OV-3 ovarian
  TGI: > 100 µM
SNB-19 CNS
  TGI: > 100 µM
SK-MEL-28 melanoma
  TGI: > 100 µM
UO-31 renal
  TGI: > 100 µM
OVCAR-4 ovarian
  TGI: > 100 µM
SNB-75 CNS
  TGI: > 100 µM
HL-60(TB) leukemia
  TGI: > 100 µM

## C=C(C)CCC(C)N1CCC(N2CCC(C(=O)NCCc3ccccc3)CC2)CC1 (stereo not given)
ACHN renal
  GI50: 17.2 µM
  TGI: 53.8 µM
EKVX NSCLC
  GI50: 9.27 µM
  TGI: > 100 µM
CCRF-CEM leukemia
  GI50: 19.9 µM
  TGI: > 100 µM
SK-OV-3 ovarian
  GI50: 21.2 µM
  TGI: 77.3 µM
SNB-19 CNS
  GI50: 58.9 µM
  TGI: > 100 µM
SK-MEL-28 melanoma
  GI50: 13.2 µM
  TGI: 27.5 µM
UO-31 renal
  GI50: 11 µM
  TGI: 25.3 µM
OVCAR-4 ovarian
  GI50: 5.97 µM
  TGI: 73 µM
SNB-75 CNS
  GI50: 14.1 µM
  TGI: 44.6 µM
HL-60(TB) leukemia
  GI50: 25.7 µM
  TGI: > 100 µM

## NCc1ccc(-n2c(-c3nonc3N)nc3cnccc32)cc1
ACHN renal
  GI50: 5.68 µM
  TGI: > 25 µM
EKVX NSCLC
  GI50: > 25 µM
  TGI: > 25 µM
CCRF-CEM leukemia
  GI50: 6.26 µM
  TGI: > 25 µM
SK-OV-3 ovarian
  GI50: > 25 µM
  TGI: > 25 µM
SNB-19 CNS
  GI50: > 25 µM
  TGI: > 25 µM
SK-MEL-28 melanoma
  GI50: 11.4 µM
  TGI: > 25 µM
UO-31 renal
  GI50: 0.442 µM
  TGI: > 25 µM
OVCAR-4 ovarian
  GI50: > 25 µM
  TGI: > 25 µM
SNB-75 CNS
  GI50: 0.291 µM
  TGI: > 25 µM
HL-60(TB) leukemia
  GI50: > 11.8 µM
  TGI: > 25 µM

## CC(C)OC(=O)c1ccc2[nH]c(O)c(C(=Nc3ccc(N(C)C(=O)CN4CCN(C)CC4)cc3)c3ccccc3)c2c1
ACHN renal
  GI50: 0.332 µM
  TGI: 1.4 µM
EKVX NSCLC
  GI50: 1.11 µM
  TGI: 2.49 µM
CCRF-CEM leukemia
  GI50: 0.371 µM
  TGI: 3.33 µM
SK-OV-3 ovarian
  GI50: 0.308 µM
  TGI: 1.34 µM
SNB-19 CNS
  GI50: 0.921 µM
  TGI: 2.33 µM
SK-MEL-28 melanoma
  GI50: 1.15 µM
  TGI: 2.52 µM
UO-31 renal
  GI50: 0.278 µM
  TGI: 1.31 µM
OVCAR-4 ovarian
  GI50: 1.02 µM
  TGI: 2.48 µM
SNB-75 CNS
  GI50: 0.101 µM
  TGI: 1.54 µM
HL-60(TB) leukemia
  GI50: 0.357 µM
  TGI: 1.18 µM

## COc1cnc2c(c1)C(=O)c1c-2n(CCCN2CCCC2)c(=O)c2cc(Cl)ccc12
ACHN renal
  GI50: 0.0753 µM
  TGI: 6.42 µM
EKVX NSCLC
  GI50: 2.18 µM
  TGI: 11.3 µM
CCRF-CEM leukemia
  GI50: 0.025 µM
  TGI: 9.05 µM
SK-OV-3 ovarian
  GI50: 1.47 µM
  TGI: 10.5 µM
SNB-19 CNS
  GI50: 1.03 µM
  TGI: 11.7 µM
SK-MEL-28 melanoma
  GI50: 8.34 µM
  TGI: 16.8 µM
UO-31 renal
  GI50: 0.599 µM
  TGI: 9.02 µM
OVCAR-4 ovarian
  GI50: 1.43 µM
  TGI: 11.2 µM
SNB-75 CNS
  GI50: 0.347 µM
  TGI: 7.79 µM
HL-60(TB) leukemia
  GI50: 6.23 µM
  TGI: 15.2 µM

## CN(C)c1ccc(N=Nc2c([O-])ccc3ccccc23)cc1.[C-]#[O+].[C-]#[O+].[Ir]
ACHN renal
  GI50: 5.43 µM
  TGI: 55.2 µM
EKVX NSCLC
  GI50: 20.6 µM
  TGI: 64.1 µM
CCRF-CEM leukemia
  GI50: 8.08 µM
  TGI: 39.9 µM
SK-OV-3 ovarian
  GI50: > 100 µM
  TGI: > 100 µM
SNB-19 CNS
  GI50: > 100 µM
  TGI: > 100 µM
SK-MEL-28 melanoma
  GI50: 26.3 µM
  TGI: 65.4 µM
UO-31 renal
  GI50: 26.7 µM
  TGI: > 53.2 µM
OVCAR-4 ovarian
  GI50: 25.4 µM
  TGI: 47.8 µM
SNB-75 CNS
  GI50: 54.8 µM
  TGI: > 100 µM
HL-60(TB) leukemia
  GI50: 10.6 µM
  TGI: > 46.6 µM

## Fc1ccc(Nc2nccc(-c3c(-c4ccc(C(F)(F)F)cc4)nn4ncccc34)n2)cc1F
ACHN renal
  GI50: > 25 µM
  TGI: > 25 µM
EKVX NSCLC
  GI50: > 25 µM
  TGI: > 25 µM
CCRF-CEM leukemia
  GI50: > 25 µM
  TGI: > 25 µM
SK-OV-3 ovarian
  GI50: > 25 µM
  TGI: > 25 µM
SNB-19 CNS
  GI50: > 25 µM
  TGI: > 25 µM
SK-MEL-28 melanoma
  GI50: > 25 µM
  TGI: > 25 µM
UO-31 renal
  GI50: > 25 µM
  TGI: > 25 µM
OVCAR-4 ovarian
  GI50: > 25 µM
  TGI: > 25 µM
SNB-75 CNS
  GI50: > 25 µM
  TGI: > 25 µM
HL-60(TB) leukemia
  GI50: > 25 µM
  TGI: > 25 µM

## Clc1ccc(CN2COc3c(cc(Cl)c4cccnc34)C2)cc1
ACHN renal
  TGI: 8.74 µM
EKVX NSCLC
  TGI: 14.2 µM
CCRF-CEM leukemia
  TGI: 4.94 µM
SK-OV-3 ovarian
  TGI: 13.3 µM
SNB-19 CNS
  TGI: 16 µM
SK-MEL-28 melanoma
  TGI: 7.38 µM
UO-31 renal
  TGI: 5.51 µM
OVCAR-4 ovarian
  TGI: 8.26 µM
SNB-75 CNS
  TGI: 11 µM
HL-60(TB) leukemia
  TGI: 2.11 µM

## O=c1[nH]cnc2c(C3OC(CO)C(O)C3O)scc12 (stereo not given)
ACHN renal
  GI50: 49.1 µM
  TGI: > 100 µM
EKVX NSCLC
  GI50: > 100 µM
  TGI: > 100 µM
CCRF-CEM leukemia
  GI50: 0.271 µM
  TGI: 1.16 µM
SK-OV-3 ovarian
  GI50: > 100 µM
  TGI: > 100 µM
SNB-19 CNS
  GI50: > 100 µM
  TGI: > 100 µM
SK-MEL-28 melanoma
  GI50: > 100 µM
  TGI: > 100 µM
UO-31 renal
  GI50: 51.4 µM
  TGI: > 100 µM
OVCAR-4 ovarian
  GI50: > 100 µM
  TGI: > 100 µM
SNB-75 CNS
  GI50: > 100 µM
  TGI: > 100 µM
HL-60(TB) leukemia
  GI50: 19.6 µM
  TGI: > 100 µM

## CCOC(=O)c1c(C)n(Cc2ccc(Cl)cc2Cl)c2c1cc1oc(=O)c(=O)n3c(Cc4ccccc4)nc2c13
ACHN renal
  GI50: 3.06 µM
  TGI: 11.8 µM
EKVX NSCLC
  GI50: 8.05 µM
  TGI: 20.8 µM
CCRF-CEM leukemia
  GI50: 1.31 µM
  TGI: 3.19 µM
SK-OV-3 ovarian
  GI50: 15.3 µM
  TGI: 30.7 µM
SNB-19 CNS
  GI50: 6.12 µM
  TGI: 20.9 µM
SK-MEL-28 melanoma
  GI50: 11 µM
  TGI: 24.9 µM
UO-31 renal
  GI50: 3.77 µM
  TGI: 15 µM
OVCAR-4 ovarian
  GI50: 4.45 µM
  TGI: 16.4 µM
SNB-75 CNS
  GI50: 10.1 µM
  TGI: 27.7 µM
HL-60(TB) leukemia
  GI50: 2.09 µM
  TGI: 6.09 µM
